The source of these data is US20240307283A1, “COMPOSITIONS AND METHODS FOR DECREASING PIGMENTATION” (The General Hospital Corporation, priority 2021, published 2024).

For data set [1], the system named is zebrafish melanocytes. Briefly: Chemical treatment of zebrafish, melanocytic brightness. To be noted: 24 hours, 100 μM 2,3BD or 50 μM DCC. Format: in vivo. As for the experimental part:
Wildtype Tübingen zebrafish were placed in a 24 well plate at 72 hours post-fertilization, with 10 larvae per well for a total twenty larvae per condition. Larvae were treated for 24 hours with either 2,3BD (1 μM, 10 μM, 100 μM, 1 mM; Sigma Aldrich, #B85307), DCC (1 μM, 10 μM, 50 μM, 100 μM; Sigma Aldrich, #D80002), or DMSO (1:500) in E3 embryo medium. At 4 days post fertilization, larvae were imaged using a Nikon SMZ18 Stereomicroscope. Melanocytes from at least 5 zebrafish embryos of each group for each experiment were analyzed using the FIJI software enabling pixel-based color quantification.

In data set [2] the test system is UACC257 human melanoma cell line. The data set is described as follows: Cell viability of UACC257 cells. Format: cell-based. To be noted: different doses, FIG. 10E. As for the experimental part: (§1) Cell viability assay: Human melanoma cell lines and isolated primary cultured human melanocytes were propagated and tested in early passage (Passages 7 to 9). The effects of NNT inhibitors (2,3BD, DCC, and Palmitoyl coenzyme A lithium salt) on cell viability were evaluated by the CellTiter-Glo Luminescent Cell Viability Assay (Promega, #G7570) and measurement of luminescence was performed on an EnVision 2104 Multilabel Reader (PerkinElmer). Human melanoma cell lines and primary melanocytes were plated on 96-well white plates (10,000 cells/well) and were treated with the NNT inhibitors at the indicated concentrations for 24 h.

Data set [3] addresses T1, NNT (Homo sapiens, UniProt Q13423).
T1 sequence (Q13423 44-1086): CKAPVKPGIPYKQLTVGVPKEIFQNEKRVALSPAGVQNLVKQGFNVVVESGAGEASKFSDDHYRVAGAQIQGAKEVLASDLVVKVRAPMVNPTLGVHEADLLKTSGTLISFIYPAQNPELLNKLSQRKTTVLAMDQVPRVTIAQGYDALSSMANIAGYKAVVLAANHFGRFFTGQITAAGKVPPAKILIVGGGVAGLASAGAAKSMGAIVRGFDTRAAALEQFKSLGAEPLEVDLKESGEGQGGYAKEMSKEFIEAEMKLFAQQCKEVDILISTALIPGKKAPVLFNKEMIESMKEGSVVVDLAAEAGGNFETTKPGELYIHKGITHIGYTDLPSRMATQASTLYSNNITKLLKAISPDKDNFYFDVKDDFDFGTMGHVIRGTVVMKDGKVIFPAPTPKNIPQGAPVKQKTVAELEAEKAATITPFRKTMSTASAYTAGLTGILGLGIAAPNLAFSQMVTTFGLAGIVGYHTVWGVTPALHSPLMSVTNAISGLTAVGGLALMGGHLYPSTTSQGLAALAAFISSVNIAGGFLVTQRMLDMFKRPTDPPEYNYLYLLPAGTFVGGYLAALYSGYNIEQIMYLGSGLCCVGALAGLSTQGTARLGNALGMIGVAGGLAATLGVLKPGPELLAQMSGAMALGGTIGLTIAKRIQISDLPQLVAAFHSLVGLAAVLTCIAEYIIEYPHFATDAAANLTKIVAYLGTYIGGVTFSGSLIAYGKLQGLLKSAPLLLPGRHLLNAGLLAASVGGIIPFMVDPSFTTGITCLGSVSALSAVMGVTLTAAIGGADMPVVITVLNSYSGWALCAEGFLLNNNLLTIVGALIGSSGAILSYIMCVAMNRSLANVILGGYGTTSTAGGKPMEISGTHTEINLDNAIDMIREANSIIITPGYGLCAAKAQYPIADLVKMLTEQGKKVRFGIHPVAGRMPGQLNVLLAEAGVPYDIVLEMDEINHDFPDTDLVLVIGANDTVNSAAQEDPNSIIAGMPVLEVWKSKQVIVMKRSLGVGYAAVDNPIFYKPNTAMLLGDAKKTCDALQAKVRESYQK
Briefly: GSH/GSSG ratio (indirect endpoint of NNT enzyme activity) in primary melanocytes. Also on record: endogenous in cells; host or cells: primary human melanocytes (isolated from neonatal foreskins). Format: cell-based. To be noted: different doses, 24 hours. The procedure:
(§2) Glutathione measurements: Cell lysates were prepared from equal numbers of cells after 24 h of DCC or 2,3BD treatment, following the manufacturer's protocols. Seventy-two h post siRNA treatment or overexpression of NNT and their corresponding controls, glutathione levels were determined using the GSH/GSSG-Glo assay (Promega, #V6611) and luminescence was measured using an EnVision 2104 Multilabel Reader (PerkinElmer).

For data set [4], the target named is T1, NNT. Briefly: GSH/GSSG ratio in UACC257 melanoma cells. Format: cell-based. Also on record: endogenous in cells. The note with it: different doses. The procedure: as §2
For data set [5], the system named is primary human melanocytes. The data set is described as follows: Intracellular melanin content of primary human melanocytes with NNT inhibitors. Format: cell-based. To be noted: 2.3 BD 2 mM for 72 hours, FIG. 10D. The text has this: Primary human melanocytes were isolated from normal discarded foreskins and were established in TIVA medium as described previously (Khaled et al., 2010) or in Medium 254 (Life Technologies, #M254500) (Allouche et al., 2015). Human melanoma cell line UACC257 (sex unspecified) was obtained from the National Cancer Institute (NCI), Frederick Cancer Division of Cancer Treatment and Diagnosis (DCTD) Tumor Cell Line Repository. SK-MEL-30 ([…]) human melanoma cell line was from Memorial Sloan Kettering Cancer Center. Both melanoma cell lines have been authenticated by our lab using ATCC's STR profiling service. UACC257 and SK-MEL-30 cells were cultured in DMEM and RPMI medium (Life Technologies, #11875119) respectively, supplemented with 10% fetal bovine serum and 1% penicillin/streptomycin/L-glutamine in a humidified atmosphere of 95% air and 5% CO2 at 37° C.
(§3) In vitro culture with NNT inhibitors: 2,3-Butanedione 97% (2,3 BD) (Sigma Aldrich, #B85307) (1 μM, 10 μM, 100 μM, 2 mM), N,N-Dicyclohexylcarbodiimide (DCC) (Sigma Aldrich, #D80002) (1 mM, 2 mM, 10 mM), and Palmitoyl coenzyme A lithium salt (Sigma Aldrich, #P9716) (10 μM, 2 mM) were reconstituted with DMSO (American Type Culture Collection, 4-X).
(§4) Melanin quantification: Equal numbers of cells were plated in 6-well plates. The cells were then harvested 72-96 hours post siRNA or NNT inhibitors compounds, as indicated in the legends, pelleted, washed in PBS and counted. 10^6 cells were used for measurement of protein concentration with the Pierce BCA protein assay (Thermo Fisher Scientific, #23225) and 10^6 cells were resuspended in 60 μl of 1 N NaOH solution and incubated at 60° C. for 2 h or until the melanin was completely dissolved. After cooling down to room temperature, samples were centrifuged at 500×g for 10 min and the supernatants were loaded onto a 96-well plate. The melanin content was determined by measuring the absorbance at 405 nm on an Envision plate reader, compared with a melanin standard (0 to 50 μg/ml; Sigma Aldrich, #M8631). Melanin content was expressed as micrograms per milligram of protein.

The test system of data set [6] is primary melanocytes. Briefly: Cell viability of primary melanocytes, different doses. The format is cell-based, human. The note with it: different doses, relative to vehicle, FIG. 10C. The procedure:
as §1

In data set [7] the test system is human melanocytes, dermal fibroblasts, and keratinocytes. The data set is described as follows: Cell viability of human skin cells with NNT inhibitors. The note with it: up to 10 μM, FIG. 10B. Format: cell-based. The procedure:
Primary human keratinocytes were cultured in EpiLife® medium supplemented with human keratinocyte growth supplement (HKGS, ThermoFisher Scientific). Primary human fibroblasts were cultured in medium 106 supplemented with low serum growth supplement (LSGS, ThermoFisher Scientific). 10^6 and […] cells were plated per well of 6-well and 96-well plates, respectively. Drugs indicated in the figure legends were dissolved in DMSO and added 1:1000 to the culture media for 24 h at the concentrations indicated.
as §1

Data set [8] concerns murine Melan-A cells. Briefly: Melanin content of Melan-A cells with NNT inhibitors. The note with it: 2 mM, FIG. 3A. Format: cell-based, mouse. As for the experimental part:
Murine Melan-A (Bennett et al., 1987) cells were obtained from the Wellcome Trust Functional Genomics Cell Bank. Melan-A cells were grown in RPMI 1640 supplemented with 10% FBS or FetalPlex (Gemini Bio-Products, #100-602), 100,000 U/L penicillin, 100 mg/L streptomycin sulphate, 100× Glutamax, and 200 nM TPA.
as §3, §4

In data set [9] the test system is human skin explants. Briefly: Pigmentation of human skin explants with topical NNT inhibitors. To be noted: human skin explants, data not shown.

Regarding `C(=NC1CCCCC1)=NC1CCCCC1` [DCC, N,N′-Dicyclohexylcarbodiimide], in data set [1], the “darkening of zebrafish embryos (melanocytic brightness)” value is “significant darkening”. Moreover, the cell viability result in [2] is “no impact on cell viability”; in [6], “no impacts on cell viability”. Further, the GSH/GSSG ratio result in data set [3] and in [4] was “decreased GSH/GSSG ratios” throughout. The intracellular melanin content result in data set [5] is on record as “significantly increased the melanin content”. Also, the “toxicity (viability)” value in data set [7] is recorded as “no significant toxicity”. Further, the melanin content result in [8] is listed as “increased melanin content”.

Regarding `CCCCCCCCCCCCCCCC(=O)SCCNC(=O)CCNC(=O)[C@H](O)C(C)(C)COP(=O)(O)OP(=O)(O)OC[C@H]1O[C@@H](n2cnc3c(N)ncnc32)[C@H](O)[C@@H]1OP(=O)(O)O.[Li]` [Palmitoyl-CoA, Palmitoyl coenzyme A lithium salt], in [9], the effect on pigmentation result was “no effect on pigmentation” and the “penetration of the epidermis” value was “did not penetrate the epidermis”. Besides, the “toxicity (viability)” value in [7] is reported as “no significant toxicity”. Further, the melanin content result in data set [8] was “not”.
